Reference: patent US5312625A, “Fused 7-membered cyclic compound and antipsychotic preparation containing the same” (Suntory Limited, priority 1990, dated 1994)

What follows are compounds tested against T1, serotonin receptor (Rattus norvegicus, UniProt P19327) (assay: Affinity for serotonin receptor, [3H]8-OHDPAT binding test in rat cerebral cortex). Conditions: [3H]8-OHDPAT 0.4 nM; rat cerebral cortex membranes; pH 7.4; 25° C., 30 minutes; read-out: [^3 H]-8-OH-DPAT IC50.
T1 construct: To a cerebral cortex nucleated from a Wistar-strain male rat; from tissue; host or cells: cerebral cortex of male Wistar rat (membrane preparation)
T1 sequence (P19327 1-422): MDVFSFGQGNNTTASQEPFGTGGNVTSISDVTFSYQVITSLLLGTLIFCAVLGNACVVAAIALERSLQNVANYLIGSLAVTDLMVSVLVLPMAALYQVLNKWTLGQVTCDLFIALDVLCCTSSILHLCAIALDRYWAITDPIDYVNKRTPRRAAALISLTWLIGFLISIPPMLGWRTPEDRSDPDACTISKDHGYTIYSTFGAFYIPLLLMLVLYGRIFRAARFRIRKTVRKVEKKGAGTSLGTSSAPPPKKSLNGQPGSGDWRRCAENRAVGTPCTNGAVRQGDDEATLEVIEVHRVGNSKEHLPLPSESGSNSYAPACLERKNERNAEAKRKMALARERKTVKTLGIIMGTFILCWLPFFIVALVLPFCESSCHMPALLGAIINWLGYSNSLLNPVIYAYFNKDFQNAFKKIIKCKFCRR
Parameters: species or system rat (Wistar-strain male)
Description: The experiment was carried out according to the method of S. T. Perouka (J. Neurochem., 47, 529-540 (1986)).
To a cerebral cortex nucleated from a Wistar-strain male rat was added 50 mM Tris-HCl (pH 7.7) buffer, and the mixture was homogenized by a Polytron®. The homogenate was centrifuged at 40,000 G for 10 minutes, and the same buffer was added to the precipitate obtained, followed by homogenization and incubation at 37° C. for 30 minutes. The suspension was again subjected to centrifugation at 40,000 G for 10 minutes, and the same buffer was added to the precipitate, followed by homogenization and a further centrifugation at 40,000 G for 10 minutes. To the final precipitate obtained was added 50 mM Tris-HCl (10 μM pargyline, 4 mM CaCl2 0.1% ascorbic acid) (pH 7.4), and the mixture was homogenized and used for the binding test. The [^3 H]8-OHDPAT used for the binding test was 0.4 nM, with the protein amount being 0.4 to 0.6 mg/ml and the total amount 1 ml. After incubation at 25° C. for 30 minutes, the mixture was filtered by the filtration method, using the Whatman GF/B filter, and the filter was washed 3 times with 5 ml of the same buffer. To the filter was added a scintillation cocktail, followed by a measurement by a liquid scintillation counter.
Compound O=C1CSc2ccccc2C(=O)N1CCCCN1CCN(c2ccccc2)CC1 [Example 17] has an IC50 of 9.29 nM. Work on O=C1CSc2ccccc2C(=O)N1CCCCN1CCN(c2ccccn2)CC1 [Example 18, 4-(4-(4-(2-pyridyl)piperazinyl)butyl)-2,3,4,5-tetrahydro-1,4-benzothiazeoine-3,5-dione] yielded an IC50 of 3.28 nM. O=C1CSc2ccccc2C(=O)N1CCCCN1CCN(c2ncccn2)CC1 [Example 19, 4-(4-(4-(2-pyrimidinyl)piperadinyl)butyl)-2,3,4,5-tetrahydro-1,4-benzothiazepine-3,5-dione] showed an IC50 of 14.3 nM. Work on O=C1CNc2ccccc2C(=O)N1CCCCN1CCN(c2ccccn2)CC1 [Example 21, 4-(4-(4-(2-pyridyl)piperazinyl)butyl)-2,3,4,5-tetrahydro-1,4-benzodiazepine-3,5-dione] yielded an IC50 of 13.3 nM. Compound O=C1CNc2ccccc2C(=O)N1CCCCN1CCN(c2ncccn2)CC1 [Example 22, 4-(4-(4-(2-pyrimidinyl)piperazinyl)butyl)-2,3,4,5-tetrahydro-1,4-benzodiazepine-3,5-dione] has an IC50 of 67.3 nM. With CN1CC(=O)N(CCCCN2CCN(c3ccccn3)CC2)C(=O)c2ccccc21 [Example 24, 1-methyl-4-(4-(4-(2-pyridyl)piperazinyl)butyl)-2,3,4,5-tetrahydro-1,4-benzodiazepine-3,5-dione] the IC50 was 61.4 nM. CN1CC(=O)N(CCCCN2CCN(c3ncccn3)CC2)C(=O)c2ccccc21 [Example 25] was tested, and the IC50 was 270 nM. With O=C1CCc2ccccc2C(=O)N1CCCCN1CCN(c2ccccn2)CC1 [Example 27, 2-(4-(4-(2-pyridyl)piperazinyl)butyl)-1,3,4,5-tetrahydro-2-benzazepine-1,3-dione] the IC50 was 17.1 nM. Compound O=C1CCc2ccccc2C(=O)N1CCCCN1CCN(c2ncccn2)CC1 [Example 28, 2-(4-(4-(2-pyrimidinyl)piperazinyl)butyl)-1,3,4,5-tetrahydro-2-benzazepine-1,3-dione] has an IC50 of 58.4 nM.
